According to patent US4448970A, “Nargenicin derivatives” (The Upjohn Company, priority 1981, dated 1984):
Read-outs that look alike come from different tables or passages of the source.

Key:
Mycobacterium avium = conditions: cited from earlier work
S. lutea [1] = conditions: cited from earlier work
K. pneumoniae = conditions: cited from earlier work
B. fragilis = conditions: cited from earlier work
C. perfringens = conditions: cited from earlier work
S. aureus [2] = assay: Standard dipped disc agar diffusion assay, S. aureus; assay type: cell-based; conditions: Staphylococcus aureus; 1 mg/ml, 0.5 in. disc
Description: In vitro antibacterial testing data, as measured by standard dipped disc agar diffusion assays and Minimum Inhibitory Concentration (MIC) determinations are as follows: […]

S. lutea [3] = assay: Standard dipped disc agar diffusion assay, S. lutea; assay type: cell-based; conditions: Micrococcus luteus
Method: In vitro antibacterial testing data, as measured by standard dipped disc agar diffusion assays and Minimum Inhibitory Concentration (MIC) determinations are as follows:
A 0.5 inch disc dipped into a methanol solution of chloride (6b) at a concentration of 1 mg/ml gave a zone of inhibition of 30 mm when spotted on an agar tray seeded with S. lutea.

S. aureus [4] = assay: S. aureus SQ-Mouse CD50; assay type: in vivo; conditions: Staphylococcus aureus, sc
Sarcina lutea = assay: Standard agar diffusion (12.5 cm disc) test, Sarcina lutea; assay type: cell-based; conditions: for zone of inhibition at 1000 µg/mL: Micrococcus luteus
Method: (§1) When tested on a standard agar diffusion (12.5 cm disc) test at a concentration of 1 mg/ml compound (45) gave the following zones of inhibition in mm:
(§2) The antibacterial activity of compounds (46), (47), (48), (49) and (50) on a standard agar diffusion (12.5 cm disc) test at a concentration of 1 mg/ml is shown in the following table: […]

Staphylococcus aureus = assay: Standard agar diffusion (12.5 cm disc) test, Staphylococcus aureus; assay type: cell-based; conditions: for zone of inhibition at 1000 µg/mL: Staphylococcus aureus
Method: as §1, §2

[5] = read-out: Agar Diffusion zone, S. lutea

COC1CC2C=CC3C4OC2(C(C)=CC(C)C(C(C)O)OC1=O)C3C(O)C(C)C4O (single isomer, unassigned) [nodusmicin]
activity against Mycobacterium avium (Mycobacterium avium): active | activity against S. lutea (S. lutea [1]): active | activity against K. pneumoniae (K. pneumoniae): active | activity against B. fragilis (B. fragilis): active | activity against C. perfringens (C. perfringens): active

CCC1OC(=O)C(OC)CC2C=CC3C4OC2(C(C)=CC1C)C3C(O)C(C)C4OC(=O)c1ccc[nH]1 (stereo not shown) [Compound 32, 18-Deoxynargenicin A1]
zone of inhibition at 1000 µg/mL (S. aureus [2]): 29 mm | zone of inhibition at 1000 µg/mL (S. lutea [3]; [5]): 32 mm | ED50 (S. aureus [4]): > 100 mg/kg

COC1CC2C=CC3C4OC2(C(C)=CC(C)C(C(C)O)OC1=O)C3C(O)C(C)C4OC(=O)c1ccc[nH]1 (stereo not shown) [Nargenicin A1, nargenicin A1, reference compound]
ED50 (S. aureus [4]): 17 to 20 mg/kg

COC1CC2C=CC3C4OC2(C(C)=CC(C)C(C(C)=NNC(N)=O)OC1=O)C3C(O)C(C)C4OC(=O)c1ccc[nH]1 (stereo not shown) [Compound 48, 18-Deoxy-18-semicarbazononargenicin A1]
zone of inhibition at 1000 µg/mL (Sarcina lutea; read-out: Zone size, S. lutea): 35 mm | zone of inhibition at 1000 µg/mL (Staphylococcus aureus; read-out: Zone size, S. aureus): 28 mm

COC1CC2C=CC3C4OC2(C(C)=CC(C)C(C(C)=O)OC1=O)C3C(O)C(C)C4OC(=O)c1ccc[nH]1 (stereo not shown) [Compound 25, 18-Deoxy-18-oxonargenicin A1]
zone of inhibition at 1000 µg/mL (S. aureus [2]): 35 mm | zone of inhibition at 1000 µg/mL (S. lutea [3]; [5]): 41 mm | ED50 (S. aureus [4]): 152 mg/kg

COC1CC2C=CC3C4OC2(C(C)=CC(C)C(C(C)Cl)OC1=O)C3C(O)C(C)C4OC(=O)c1ccc[nH]1 (stereo not shown) [Compound 24, 18-Chloro-18-deoxynargenicin A1]
zone of inhibition at 1000 µg/mL (S. aureus [2]): 29 mm | zone of inhibition at 1000 µg/mL (S. lutea [3]; [5]): 31 mm | ED50 (S. aureus [4]): 107 mg/kg

COC1CC2C=CC3C4OC2(C(C)=CC(C)C(C(C)=NO)OC1=O)C3C(O)C(C)C4OC(=O)c1ccc[nH]1 (single isomer, unassigned; isomer a) [Compound 46, 18-Deoxy-18-oximinonargenicin A1, Isomer A]
zone of inhibition at 1000 µg/mL (Sarcina lutea; read-out: Zone size, S. lutea): 37 mm | zone of inhibition at 1000 µg/mL (Staphylococcus aureus; read-out: Zone size, S. aureus): 30 mm

CON=C(C)C1OC(=O)C(OC)CC2C=CC3C4OC2(C(C)=CC1C)C3C(O)C(C)C4OC(=O)c1ccc[nH]1 (single isomer, unassigned; isomer a) [Compound 49, 18-Deoxy-18-methoximinonargenicin A1, Isomer A]
zone of inhibition at 1000 µg/mL (Sarcina lutea; 1 mg/ml, 12.5 cm disc, table 6, read-out: Zone size, S. lutea): 35 mm | zone of inhibition at 1000 µg/mL (Staphylococcus aureus; 1 mg/ml, 12.5 cm disc, table 6, read-out: Zone size, S. aureus): 30 mm

COC1CC2C=CC3C4OC2(C(C)=CC(C)C(C(C)Cl)OC1=O)C3C(O)C(C)C4O (stereo not shown) [Compound 35, 18-Chloro-18-deoxynodusmicin]
zone of inhibition at 1000 µg/mL (S. lutea [3]; 1 mg/ml, 0.5 in. disc, read-out: Agar Diffusion zone, S. lutea): 30 mm | zone of inhibition at 1000 µg/mL (S. lutea [3]; 0.5 inch disc dipped into methanol solution, 1 mg/ml, read-out: zone of inhibition, S. lutea): 30 mm

COC1CC2C=CC3C4OC2(C(C)=CC(C)C(C(C)O)OC1=O)C3C(O)C(C)C4OC(=O)c1ccc[nH]1 (stereo not shown) [Compound 45, 18-Epinargenicin A1]
zone of inhibition at 1000 µg/mL (Sarcina lutea; read-out: zones of inhibition, Sarcina lutea): 35 mm | zone of inhibition at 1000 µg/mL (Staphylococcus aureus; read-out: zones of inhibition, Staphylococcus aureus): 26 mm

CON=C(C)C1OC(=O)C(OC)CC2C=CC3C4OC2(C(C)=CC1C)C3C(O)C(C)C4OC(=O)c1ccc[nH]1 (single isomer, unassigned; isomer b) [Compound 50, 18-Deoxy-18-methoximinonargenicin A1, Isomer B]
Zone size, S. lutea (Sarcina lutea; 1 mg/ml, 12.5 cm disc, table 6): 35 mm | Zone size, S. aureus (Staphylococcus aureus; 1 mg/ml, 12.5 cm disc, table 6): 30 mm

COC1CC2C=CC3C4OC2(C(C)=CC(C)C(C(C)N=[N+]=[N-])OC1=O)C3C(O)C(C)C4OC(=O)c1ccc[nH]1 (stereo not shown) [Compound 29, 18-Azido-18-deoxynargenicin A1]
zone of inhibition at 1000 µg/mL (S. aureus [2]): 26 mm | zone of inhibition at 1000 µg/mL (S. lutea [3]; [5]): 33 mm

COC1CC2C=CC3C4OC2(C(C)=CC(C)C(C(C)=NO)OC1=O)C3C(O)C(C)C4OC(=O)c1ccc[nH]1 (single isomer, unassigned; isomer b) [Compound 47, 18-Deoxy-18-oximinonargenicin A1, Isomer B]
Zone size, S. lutea (Sarcina lutea; 1 mg/ml, 12.5 cm disc, table 6): 37 mm | Zone size, S. aureus (Staphylococcus aureus; 1 mg/ml, 12.5 cm disc, table 6): 30 mm
